Data as given in US10758549B2, “Compositions of obeticholic acid and methods of use” (Intercept Pharmaceuticals, Inc., priority 2015, dated 2020).

Experiments:
CYP2C8 = molecular target: T1, CYP2C8 (Homo sapiens, UniProt P10632); assay: In vitro studies: CYP inhibition; assay type: in vitro ADME
T1 sequence (P10632 1-490): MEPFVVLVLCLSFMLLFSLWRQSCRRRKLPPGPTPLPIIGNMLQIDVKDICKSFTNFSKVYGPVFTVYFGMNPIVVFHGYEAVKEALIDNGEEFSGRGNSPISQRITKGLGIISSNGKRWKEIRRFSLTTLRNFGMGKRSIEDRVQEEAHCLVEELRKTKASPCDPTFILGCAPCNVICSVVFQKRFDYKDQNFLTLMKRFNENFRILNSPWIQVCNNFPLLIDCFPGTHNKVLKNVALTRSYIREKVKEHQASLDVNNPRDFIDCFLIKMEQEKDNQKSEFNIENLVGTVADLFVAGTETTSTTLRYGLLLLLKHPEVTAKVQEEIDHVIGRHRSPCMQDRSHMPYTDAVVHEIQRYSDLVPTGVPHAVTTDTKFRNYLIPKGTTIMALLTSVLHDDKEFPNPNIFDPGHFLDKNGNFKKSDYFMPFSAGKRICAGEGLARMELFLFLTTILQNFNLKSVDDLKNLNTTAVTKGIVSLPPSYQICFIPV

[1] = tested on: CYP2B6, CYP2C8, CYP2D6, MRP2, MRP3, MRP4, MATE1, and OATP2B1; assay: In vitro studies: expression of metabolizing enzymes and transporters; assay type: in vitro ADME
[2] = Physiologic pharmacokinetic model of OCA (population PK fit and simulations); parameters: species or system human
Description: Plasma levels of OCA and its conjugates were measured in healthy subjects and cirrhotic patients with varying degrees of hepatic impairment. A physiologic pharmacokinetic model for OCA was developed to quantitatively describe the absorption, distribution, metabolism, and excretion of OCA in patients with and without hepatic impairment. The model was based on a published multi-compartment PK model for CDCA, and consisted of systemic, hepatobiliary, and intestinal systems. The model was used to simulate the pathophysiological abnormalities caused by cirrhosis including decreased hepatic uptake, portal-systemic shunting, decreased liver volume, and differences in amino acid conjugation.
This examples describes development of a physiologic PK model to quantitatively describe the absorption, distribution, metabolism, and excretion of OCA. In addition, the model was used to define the effects of hepatic impairment to predict the systemic and liver exposure to OCA in subjects with various degrees of liver impairment relative to healthy subjects with normal liver function. The model was developed based on 3 studies in healthy volunteers and 2 studies in patients with varying degrees of hepatic impairment […].
Data from was used to develop the model in healthy subjects (n=160) and then adjust for hepatic impairment (n=32) using the data from the above Examples. After development, the model was validated with data sourced from healthy subjects and cirrhotic patients.
The data used in model development included subject identifiers, time of dosing and sample collection, plasma drug concentrations (OCA, glyco-OCA, and tauro-OCA), dose amount, disease status (e.g., Child-Pugh score), and meal consumption information. Study participants received standardized meals at specified times during inpatient observation. Gallbladder contraction was assumed to last 90 minutes after the start of a meal. Drug concentrations below the limit of quantification (BLQ) were imputed to half of the lower limit of quantification (LLOQ). Observed and BLQ concentrations of OCA, glyco-OCA, and tauro-OCA associated with samples drawn prior to the first dose were excluded from the analyses.
A number of structural modifications were made to the base CDCA model in order to adapt it for use with OCA. For simplification, a single space was used to represent the gut (small and large intestines). Since OCA is an exogenous molecule, it was assumed that there was no endogenous synthesis and an absorption compartment with a first-order transfer coefficient (Ka) was included to represent the administration and absorption kinetics of an oral OCA dose. Based on steric hindrance by the 6-ethyl group of OCA, no bacterial 7-alpha dehydroxylation biotransformation activity (i.e., CDCA to lithocholic acid) was included in the model. Compartment volumes in the model were fixed to physiological values from the base CDCA model. The OCA model used the physiological flow values for blood, bile and gastrointestinal transit from the original physiologic PK model for CDCA, with the exception of flows from bile duct to gallbladder and from bile duct to gut. The physiological values from the base model led to poor predictions and may not be applicable due to the simplification of the enteral system into a unified gut compartment. The biotransformation and transport rates in the model, being dependent on chemical entity structure, were estimated by fitting the model to the plasma concentration time profiles of OCA, glyco-OCA, and tauro-OCA.
The PK model was first developed using the OCA, glyco-OCA, and tauro-OCA plasma concentration time profiles from healthy volunteers with normal hepatic function. Model parameter estimates related to healthy physiology were then held constant while the PK model was further developed using OCA, glyco-OCA, and tauro-OCA plasma concentration time profiles from patients with hepatic impairment (Child-Pugh scores A, B, and C). […]

[3] = normal hepatic function, Fixed; cited from earlier work
[4] = exponent on t10, model estimate
[5] = normal hepatic function, model estimate

- inhibition of CYP2C8 (CYP2C8): not an inhibitor
- change in expression of CYP2B6, CYP2C8, CYP2D6, MRP2, MRP3, MRP4, MATE1, and OATP2B1 [1]: did not cause a significant change
- Effect in Mild hepatic impairment in hepatic uptake of OCA and conjugates [2, 4]: −0.132
- Effect in Moderate hepatic impairment in hepatic uptake of OCA and conjugates [2, 4]: −1.86
- Effect in Severe hepatic impairment in hepatic uptake of OCA and conjugates [2, 4]: −2.37
- Effect of Mild hepatic impairment on OCA tauro-conjugation ([2]; exponent, model estimate): 0.00481
- Effect of Moderate hepatic impairment on OCA tauro-conjugation ([2]; exponent, model estimate): 1.05
- Effect of Severe hepatic impairment on OCA tauro-conjugation ([2]; exponent, model estimate): 1.56
- Ka: OCA first order rate constant of oral absorption [2, 5]: 5.32 h⁻¹
- b16: OCA rate of conjugation with glycine [2, 5]: 1.44 h⁻¹
- b18: OCA rate of conjugation with taurine [2, 5]: 0.312 h⁻¹
- kout: Rate of fecal elimination of OCA [2, 5]: 0.612 L/h
- t10: OCA transport rate from liver to sinusoidal space [2, 5]: 1698 h⁻¹
- t34: OCA rate of absorption from gut to portal space [2, 5]: 0.857 h⁻¹
SMILES: CC[C@H]1[C@@H](O)[C@@H]2[C@H](CC[C@]3(C)[C@@H]([C@H](C)CCC(=O)O)CC[C@@H]23)[C@@]2(C)CC[C@@H](O)C[C@@H]12 [OCA, 3α,7α-dihydroxy-6α-ethyl-5β-cholan-24-oic acid]
- t13: OCA transport rate from sinusoidal space to liver [3]: 1.62 h⁻¹
